The text below walks through data of patent US20260327655A1, “SMALL-MOLECULE REGULATED ALTERNATIVE SPLICING” (priority 2023, published 2026).

The subject of assay [1] is RS2-3 minigene (Firefly Luciferase), HEK-293T cells. Kind of assay: Luciferase induction assay, RS2-3 with splice modulator compounds in HEK-293T cells. Format: cell-based. As to conditions: Homo sapiens, 18 hours, n of 3, read-out: Mean fold-induction of luciferase (relative to vehicle control).
The subject of another assay is RS1-10, NIH-3T3 cells. Kind of assay: RS1-10 performance in NIH-3T3 cells. Format: cell-based, mouse. Conditions: CMV promoter, 18 hours, FIG. 10B. As to the method:
Human cell line HEK-293T cells or NIH-3T3 mouse fibroblast cell line cells were cultured in DMEM+10% FBS, collected after trypsinization, and then dispensed into 96-well plates (cell culture-treated). Each well of the plate was seeded with 1.0×10^5 cells in 100 μL culture medium. After a 1-hour incubation in the tissue culture incubator (5% CO2, 37 degrees C.), plasmid DNA was complexed with a transfection reagent, such as Lipofectamine 3000, and added to respective wells on the plate. Each well received an equivalent of 100 ng of plasmid DNA complexed with 0.15 μL Lipofectamine 3000. Triplicate wells were used for each condition tested in the experiment. The plasmid utilized in the experiments for HEK-293T cells and NIH-3T3 mouse fibroblast cells encoded a CMV promoter upstream of the RS1-10 construct that controlled the expression of a Firefly Luciferase gene followed by a SV40 polyadenylation signal. After a 10-minute incubation at room temperature, either DMSO vehicle or 24 A at specified doses was added to the wells of the plate. Plates were then incubated for 18 hours in a tissue culture incubator. Endpoint analysis was performed by adding 100 uL of a Luciferase substrate, such as Steady-Luc Firefly Luciferase substrate, to each well of the assay plate. […] Finally, the luminescent signal from each well was measured with a plate reader. […]

The next assay has as its system RS1-10. Kind of assay: In vivo mouse study of RS1-10 activation (AAV-PHP.eB, bioluminescent imaging). Set-up: species or system C57BL/6 mice. Conditions: 10 mg/kg single oral gavage. As to the method: C57BL/6 mice underwent tail vein injection of 3.00E+11 vector (depicted in FIG. 11A) genomes/mouse AAV vector composed of a genome containing a cloned human Synapsin promoter driving the expression of a Firefly Luciferase gene. Expression of the luciferase gene was gated by the RS1-10 switch. The AAV vector utilized a brain-penetrant AAV-PHP.eB capsid (FIG. 11A). At approximately 3 weeks after AAV delivery, mice were either dosed with compound vehicle or 10 mg/kg 24 A as a single oral gavage. 6 hours after the oral dosing, mice were intraperitoneally administered D-Luciferin (150 mg/kg), anesthetized, and imaged with a bioluminescent imaging (BLI) system to analyze activation of RS1-10. Light flux from expressed Firefly Luciferase was measured from the whole body of each mouse as radiance and a brightfield image was also taken as an anatomical reference (FIG. 11B). […]
C57BL/6 mice underwent tail vein injection of 3.00E+11 vector genomes/mouse AAV vector composed of a genome containing a cloned human Synapsin promoter driving the expression of a Firefly Luciferase gene. […] Light flux from expressed Firefly Luciferase was measured from the whole body of each mouse as radiance and a brightfield image was also taken as an anatomical reference. […]

A further assay concerns RS1-10 and RS1-X1. Kind of assay: Luminescence of RS1-10 and RS1-X1 in HEK-293T cells. Format: cell-based, human. Conditions: 85 nM, 24 hours, RS1-X1 vs RS1-10, FIG. 8B. The procedure:
A plasmid pool that was transfected into HEK-293T cells was treated for 24 hours with splice modulator 24 A at a concentration of 85 nM. RS1-10 was the starting minigene sequence and a variant switch sequence was identified from the switch sequence screen containing a 28 nucleotide intronic deletion compared to the RS1-10 sequence. […]. RS1-10 controlling a firefly luciferase gene or RS1-X1 controlling a firefly luciferase gene were cloned into individual expression plasmids containing a CMV promoter. HEK 293T cells were transfected with either the RS1-10 or RST-XT expression plasmid and were then treated for 24 hours with 85 nM 24 A while incubated in a tissue culture incubator (37° C., 5% CO2). The luminescence was measured as an endpoint analysis by adding 100 μL of a Luciferase substrate, such as Steady-Luc Firefly Luciferase substrate, to each well of the assay plate. The liquid contents of each well was transferred to a 96-well plate, mixed again for 2 min on an orbital shaker, and incubated at room temperature for 5 min. Finally, the luminescent signal from each well was measured with a plate reader (FIG. 8B).

`CCN1CC(c2ccc(-c3ccc(-c4ccc5nn(C)cc5c4)cc3O)nn2)C1` [Compound 24A, 2-[6-(1-ethylazetidin-3-yl)pyridazin-3-yl]-5-(2-methyl-2H-indazol-5-yl)phenol]: the fold induction at 0.1 µM in assay [1] (RS2-3, 100 nM) came out at 14.5. Moreover, the fold induction at 1 µM in assay [1] (RS2-3, 1,000 nM) is 42.6. Also, the fold-induction of luciferase result in the assay with RS1-10, NIH-3T3 cells is “increasing fold-induction of luciferase with increasing concentrations of 24 A”. For the same molecule, the “light flux from the heads of mice (bioluminescent imaging)” value in the assay with RS1-10 (6 hours post dose, ~3 weeks after AAV delivery, vs vehicle) is on record as “Significant increases in light flux”. Further, the “bioluminescent signal after drug washout” value in the assay with RS1-10 (7 days post dose) is given as “No significant signal was detected”. Moreover, the “luminescence (RLU)” value in the assay on RS1-10 and RS1-X1 was “RS1-X1 produced a higher luminescence (RLU) than RS1-10”.
